{"source": "patent US20060166934A1", "about": "“Composition comprising phytosphingosine derivatives for apoptosis induction” (Tae-Yoon Kim, priority 2002, published 2006)", "key": {"[1]": {"test_system": "HaCaT cells human keratinocyte cell line", "test": "MTT assay, combined administration with Vit D3 or calcipotriol", "assay_type": "cell-based", "procedure": "In order to study the synergistic effect in the cytotoxicity when the compositions of the present invention are administered in combination with Vit D3 or calcipotriol, the cell viability is analyzed by MTT assay method in HaCaT cells human keratinocyte cell line.\nTo HaCaT cells, 1 μM of Vit D3 or calcipotriol, or 10 μM each of NAPS and TAPS, is administered singly or in combination with each other, and they are cultured for 24 hours. And the effects of these drugs on the cytotoxicity according to the single or combined administration are observed by MTT assay. C2-ceramide is used for comparison."}, "[2]": {"test_system": "human umbilical vein endothelial cells (HUVEC)", "test": "MTT assay, cytotoxicity in HUVEC", "assay_type": "cell-based", "settings": "for Cell viability: HUVEC, con = 100, in %", "procedure": "(§1) Firstly, the cytotoxicity is measured by the MTT assay. Phytosphingosine (PS), phytosphingosine-HCl (PS-HCl), C6-phytosphingosine (C6-PS), CLA-phytosphingosine (CLA-PS), tetraacetyl phytosphingosine (TAPS), and N-acetyl phytosphingosine (NAPS) are dissolved into DMSO to have the final concentration of 1-100 μM.\n(§2) In order to study the effects of the compositions of the present invention on the cytotoxicity in the human keratinocyte cell line HaCaT cells, the cell viability is analyzed by the MTT (3-[4,5-dimethylthiazol-2-yl]-2,5-diphenyltetrazolium bromide) assay. HaCaT cells are supplied by Professor N. Fuseng of German Cancer Research in Germany. HaCaT cells are seeded in a density of 1×10^6 cells in a […] and cultured in DMEM (Dulbecco's Modified Eagle Medium) containing 10% fetal bovine serum (FBS, GIBCO), 100 units/ml penicillin, and 100 μg/ml streptomycin for 48 hours. They are treated with trypsin and 1-2×10^4 cells per well are seeded again in a 96-well plate by using a serum-free culture medium, about 3 hours after which they are cultured by treatment with phytosphingosine derivatives. After they are cultured for 24 hours, the MTT reagent is added at a concentration of 2 mg/ml, cultured for 4 hours, suspended in DMSO after removing the culture medium completely in order to measure O.D. at 540 nm. C2-ceramide is used for comparison.\nThe MTT assay is used for the above purpose. Primary human umbilical vein endothelial cells are cultured from the human umbilical vein. The method of cell culture and the MTT assay are the same as those in the above. C2-ceramide is used for comparison."}, "[3]": {"test_system": "human keratinocyte cell line HaCaT cells", "test": "MTT assay, cytotoxicity in human keratinocyte cell line", "assay_type": "cell-based", "settings": "for Cell viability: 24 hours, con = 100, in %", "procedure": "as §1, §2"}, "[4]": {"test_system": "caspase-3", "test": "Immunoblot analysis of active caspase-3", "assay_type": "cell-based, human", "settings": "HaCaT, FIG. 11; for time to maximum active caspase-3: after treatment; for maximum increase of active caspase-3 (expression of induction): immunoblot", "procedure": "In the confirmation of apoptosis-related proteins, the immunoblot analysis is performed in order to look into the effects of the compositions of the present invention on the expression of caspase-3, p53, and Chk1 proteins related to the induction of apoptosis.\nHaCaT cells are cultured on a 100-mm dish and collected at the indicative time. The proteins are extracted by adding 500 μl of RIPA lysis buffer (1% Nonidet P-40, 1% sodium deoxycholate, 0.1% SDS, […], 0.01 M sodium phosphate, pH 7.2, 2 mM EDTA, 50 mM sodium fluoride and 0.2 mM sodium vanadate), and the concentration is measured by using the Bradford method. 1\nExtracted proteins is electrophoresed on 12% polyacrylamide gel, and they are transferred to the nitrocellulose membrane. The membrane blocked with 5% non-fat milk is reacted with the primary antibodies (caspase-3, p53, and Chk1), washed, and reacted with the secondary HRP-conjugated antibody. The intensity of proteins is analyzed by using the ECL kit."}, "[5]": {"test_system": "Th1 cells activation against allogenic cells (PBMC)", "test": "Reactions among allogenic cells, Th1 cells activation, MTT assay", "assay_type": "cell-based, human", "settings": "FIG. 5", "description": "Whether the composition of the present invention has a suppressive effect on the Th1 cells activation by allogenic cells in immune reation was examined.\nPBMC obtained from different volunteers as described in the above 5 were used for responder cells and stimulator cells respectively. PBMC for stimulator cells were used after X-ray irradiation (3000 rad) to inhibit the proliferation of stimulator cells.\nEach 2×10^5 responder cells and stimulator cells were mixed with each other and cultured for 5 days on the 96-well plate. And RPMI with 10% of serum was used as a medium.\nThe above cells were cultured for 24 hours in the presence of 1, 10, 50 and 100 μM of NAPS, TAPS, and PS to examine the proliferation of the cells.\nC2-ceramide was used as control."}, "[6]": {"test_system": "A431 cells, human skin cancer cell line", "test": "MTT assay, cytotoxicity in human skin cancer cell line", "assay_type": "cell-based", "settings": "for Cell viability: A431, con = 100, in %", "procedure": "as §1, §2\nIn order to study the effects of the compositions of the present invention on the cytotoxicity in A431 cells, human skin cancer cell line, the MTT assay is used. The method of cell culture and MTT assay are the same as those in the above method. C2-ceramide is used for comparison."}, "[7]": {"test_system": "HaCaT cells", "test": "MTT assay, combined treatment with UVB irradiation", "assay_type": "cell-based, human", "design": "Cell viability: unit not given here", "settings": "for cytotoxicity: 10 μM only; for Cell viability: HaCaT", "procedure": "In order to study the synergistic effect in the cytotoxicity by the cotreatment with administration of the compositions of the present invention and with UVB irradiation, the cell viability is analyzed by MTT assay method in HaCaT cells. On a 100-mm dish, 1×10^6 HaCaT cells are seeded and cultured in DMEM containing 10% fetal bovine serum, 100 units/ml penicillin, and 100 μg/ml streptomycin for 48 hours. They are treated with trypsin, and 1-2×10^4 cells per well are seeded on a 96-well plate again by using a serum-free medium, which is removed after about 3 hours. HaCaT cells are washed with PBS three times, and 3.5 ml of PBS per plate is added. It is then irradiated with 200 J/m^2 of UVB. After irradiation, the medium is replaced with a DMEM medium. Then it is treated with the phytosphingosine derivatives of the present invention, and cultured for 24 hours. After 2 mg/ml of the MTT reagent is added, it is cultured for 4 hours. The medium is removed completely, the cells are suspended in DMSO, and O.D. is measured at 540 nm."}}, "data": [{"compound": "CCCCCCCCCCCCCC[C@@H](O)[C@@H](O)[C@H](CO)NC(C)=O", "note": "[NAPS, N-acetyl phytosphingosine]", "values": [{"measurement": "Cell viability", "setting": "[1]; human, 24 h, 10 µM", "result": "86 ± 2"}, {"measurement": "cytotoxicity", "setting": "[1]; human, 24 h, 10 µM", "result": 14, "unit": "%"}, {"measurement": "cytotoxicity", "setting": "[2]; human, 24 h, 30 μM", "result": "86-91%"}, {"measurement": "cytotoxicity", "setting": "[3]; human, 24 h, 30 μM", "result": 83, "unit": "%"}, {"measurement": "time after treatment at which cleavage to active caspase-3 is increased significantly", "setting": "[4]", "result": 30, "unit": "min"}, {"measurement": "time for which increased active caspase-3 is maintained", "setting": "[4]", "result": 12, "unit": "h"}, {"measurement": "time to maximum active caspase-3", "setting": "[4]", "result": "≤ 3", "unit": "h"}, {"measurement": "maximum increase of active caspase-3 (expression of induction)", "setting": "[4]", "result": 6, "unit": "folds"}, {"measurement": "concentration showing a suppressive effect on Th1 cells activation against allogenic cells", "setting": "[5]", "result": 50, "unit": "μM"}, {"measurement": "cytotoxicity", "setting": "[6]; human, 24 h, 50 μM", "result": "95-98%"}, {"measurement": "cytotoxicity", "setting": "[7]; no UVB", "result": 33, "unit": "%"}]}, {"compound": "tetraacetyl phytosphingosine [TAPS]", "values": [{"measurement": "cytotoxicity", "setting": "[1]; 10 μM combined application with Vit D3", "result": 66, "unit": "%"}, {"measurement": "cytotoxicity", "setting": "[1]; 10 μM combined application with calcipotriol", "result": 64, "unit": "%"}, {"measurement": "Cell viability", "setting": "[1]; 10 μM combined with Vit D3 (1 μM), 24 hours, HaCaT, in %", "result": "34 ± 4"}, {"measurement": "Cell viability", "setting": "[1]; 10 μM combined with calcipotriol (1 μM), 24 hours, HaCaT, in %", "result": "36 ± 8"}, {"measurement": "cytotoxicity", "setting": "[1]; 10 μM single administration", "result": 24, "unit": "%"}, {"measurement": "Cell viability", "setting": "[1]; 10 μM singly, 24 hours, HaCaT, in %", "result": "76 ± 2"}, {"measurement": "Cell viability", "setting": "[2]; 3.5 μM", "result": "47 ± 8.4"}, {"measurement": "Cell viability", "setting": "[2]; 7 μM", "result": "22 ± 1.9"}, {"measurement": "Cell viability", "setting": "[2]; 15 μM", "result": "15 ± 0.7"}, {"measurement": "Cell viability", "setting": "[2]; 30 μM", "result": "9 ± 0.5"}, {"measurement": "Cell viability", "setting": "[3]; 1 μM, HaCaT", "result": "94 ± 0.1"}, {"measurement": "Cell viability", "setting": "[3]; 3 μM, HaCaT", "result": "93 ± 2.9"}, {"measurement": "Cell viability", "setting": "[3]; 10 μM, HaCaT", "result": "76 ± 1.4"}, {"measurement": "Cell viability", "setting": "[3]; 30 μM, HaCaT", "result": "17 ± 1.1"}, {"measurement": "cytotoxicity", "setting": "[3]; 30 μM, HaCaT", "result": 83, "unit": "%"}, {"measurement": "time for which increased active caspase-3 is maintained", "setting": "[4]", "result": 24, "unit": "h"}, {"measurement": "time to maximum active caspase-3", "setting": "[4]", "result": "≤ 3", "unit": "h"}, {"measurement": "maximum increase of active caspase-3 (expression of induction)", "setting": "[4]", "result": 5, "unit": "folds"}, {"measurement": "suppressive effect on Th1 cells activation against allogenic cells", "setting": "[5]; 50 μM", "result": "suppress completely"}, {"measurement": "concentration showing a suppressive effect on Th1 cells activation against allogenic cells", "setting": "[5]", "result": 50, "unit": "μM"}, {"measurement": "Cell viability", "setting": "[6]; 3 μM", "result": "113 ± 11.2"}, {"measurement": "Cell viability", "setting": "[6]; 10 μM", "result": "83 ± 13.9"}, {"measurement": "Cell viability", "setting": "[6]; 30 μM", "result": "12 ± 1.7"}, {"measurement": "Cell viability", "setting": "[6]; 50 μM", "result": "5 ± 1.2"}, {"measurement": "Cell viability", "setting": "[7]; 1 μM + UVB 200 J/m^2, 24 hours", "result": "27 ± 7.1"}, {"measurement": "Cell viability", "setting": "[7]; 1 μM, no UVB, 24 hours", "result": "111 ± 7.0"}, {"measurement": "Cell viability", "setting": "[7]; 3 μM + UVB 200 J/m^2, 24 hours", "result": "27 ± 3.9"}, {"measurement": "Cell viability", "setting": "[7]; 3 μM, no UVB, 24 hours", "result": "97 ± 10.0"}, {"measurement": "Cell viability", "setting": "[7]; 5 μM + UVB 200 J/m^2, 24 hours", "result": "16 ± 3.2"}, {"measurement": "Cell viability", "setting": "[7]; 5 μM, no UVB, 24 hours", "result": "83 ± 8.0"}, {"measurement": "Cell viability", "setting": "[7]; 10 μM + UVB 200 J/m^2, 24 hours", "result": "2 ± 0.1"}, {"measurement": "cytotoxicity", "setting": "[7]; no UVB", "result": 57, "unit": "%"}, {"measurement": "Cell viability", "setting": "[7]; 10 μM, no UVB, 24 hours", "result": "43 ± 4.0"}]}]}
